Results published in ChEMBL document CHEMBL1201862, “PubChem BioAssay data set” (2004).
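48-hour exposure; five concentrations; linearly interpolated endpoints. GI50: concentration for 50% inhibition of growth.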 Active and inactive are the calls of the source. No stated cut-off is given here; in the data, active = GI50 up to about 1.1 µM and inactive = higher. Peptide text beside a SMILES is read from it.

Experiments:
Assay in all cases: NCI anticancer screen, dose series, 48 h
786-0 = test system: 786-0
A498 = test system: A498
A549 = test system: A549
ACHN = test system: ACHN
CAKI-1 = test system: CAKI-1
CCRF-CEM = test system: CCRF-CEM
COLO 205 = test system: COLO 205
DLD-1 = test system: DLD-1
DMS-114 = test system: DMS-114
DMS-273 = test system: DMS-273
DU-145 = test system: DU-145
EKVX = test system: EKVX
HCC 2998 = test system: HCC 2998
HCT-116 = test system: HCT-116
HCT-15 = test system: HCT-15
HL-60 = test system: HL-60
HOP-18 = test system: HOP-18
HOP-62 = test system: HOP-62
HT-29 = test system: HT-29
Hs-578T = test system: Hs-578T
IGROV-1 = test system: IGROV-1
K562 = test system: K562
KM-20L2 = test system: KM-20L2
KM12 = test system: KM12
LOX IMVI = test system: LOX IMVI
LXFL 529 = test system: LXFL 529
M14 = test system: M14
M19-MEL = test system: M19-MEL
MCF7 = test system: MCF7
MDA-MB-231 = test system: MDA-MB-231
MDA-MB-435 = test system: MDA-MB-435
MDA-N = test system: MDA-N
MOLT-4 = test system: MOLT-4
Malme-3M = test system: Malme-3M
NCI-H226 = test system: NCI-H226
NCI-H23 = test system: NCI-H23
NCI-H460 = test system: NCI-H460
NCI-H522 = test system: NCI-H522
NCI/ADR-RES = test system: NCI/ADR-RES
OVCAR-3 = test system: OVCAR-3
OVCAR-4 = test system: OVCAR-4
OVCAR-5 = test system: OVCAR-5
OVCAR-8 = test system: OVCAR-8
PC-3 = test system: PC-3
RPMI-8226 = test system: RPMI-8226
RXF 393 = test system: RXF 393
RXF 631 = test system: RXF 631
SF-268 = test system: SF-268
SF-295 = test system: SF-295
SF-539 = test system: SF-539
SK-MEL-28 = test system: SK-MEL-28
SK-MEL-2 = test system: SK-MEL-2
SK-MEL-5 = test system: SK-MEL-5
SK-OV-3 = test system: SK-OV-3
SN12C = test system: SN12C
SNB-19 = test system: SNB-19
SNB-75 = test system: SNB-75
SNB-78 = test system: SNB-78
SW-620 = test system: SW-620
T47D = test system: T47D
U-251 = test system: U-251
UACC-257 = test system: UACC-257
UACC-62 = test system: UACC-62
UO-31 = test system: UO-31
XF498 = test system: XF498

SMILES: CC(C)CC(NC(=O)C(CC(C)C)NC(=O)C(Cc1c[nH]cn1)NC(=O)C(C)NC(=O)C(NC(=O)C(C)NC(=O)C(Cc1c[nH]c2ccccc12)NC(=O)C(CCC(=O)O)NC(=O)C(N)Cc1ccccc1)C(C)C)C(N)=O (stereo not given) (H-FEWAVAHLL-NH2; configuration not given here)
- GI50 (786-0): > 12.5 µM (inactive)
- GI50 (A498): > 12.5 µM (inactive)
- GI50 (A549): > 12.5 µM (inactive)
- GI50 (ACHN): > 100 µM (inactive)
- GI50 (CAKI-1): > 12.5 µM (inactive)
- GI50 (CCRF-CEM): > 12.5 µM (inactive)
- GI50 (COLO 205): > 12.5 µM (inactive)
- GI50 (DLD-1): > 100 µM (inactive)
- GI50 (DMS-114): > 100 µM (inactive)
- GI50 (DMS-273): > 100 µM (inactive)
- GI50 (DU-145): > 12.5 µM (inactive)
- GI50 (EKVX): > 12.5 µM (inactive)
- GI50 (HCC 2998): > 12.5 µM (inactive)
- GI50 (HCT-116): > 12.5 µM (inactive)
- GI50 (HCT-15): > 12.5 µM
- GI50 (HL-60): > 12.5 µM (inactive)
- GI50 (HOP-18): > 100 µM (inactive)
- GI50 (HOP-62): > 12.5 µM (inactive)
- GI50 (HT-29): > 12.5 µM (inactive)
- GI50 (Hs-578T): > 12.5 µM (inactive)
- GI50 (IGROV-1): > 12.5 µM (inactive)
- GI50 (K562): > 12.5 µM (inactive)
- GI50 (KM-20L2): > 100 µM (inactive)
- GI50 (KM12): > 12.5 µM (inactive)
- GI50 (LOX IMVI): > 12.5 µM (inactive)
- GI50 (LXFL 529): > 100 µM (inactive)
- GI50 (M14): > 12.5 µM (inactive)
- GI50 (M19-MEL): > 100 µM (inactive)
- GI50 (MCF7): > 12.5 µM (inactive)
- GI50 (MDA-MB-231): > 12.5 µM (inactive)
- GI50 (MDA-MB-435): > 12.5 µM (inactive)
- GI50 (MDA-N): > 12.5 µM (inactive)
- GI50 (MOLT-4): > 12.5 µM (inactive)
- GI50 (Malme-3M): > 12.5 µM (inactive)
- GI50 (NCI-H226): > 12.5 µM (inactive)
- GI50 (NCI-H23): > 12.5 µM (inactive)
- GI50 (NCI-H460): > 12.5 µM (inactive)
- GI50 (NCI-H522): > 12.5 µM (inactive)
- GI50 (NCI/ADR-RES): > 12.5 µM (inactive)
- GI50 (OVCAR-3): > 12.5 µM (inactive)
- GI50 (OVCAR-4): > 12.5 µM (inactive)
- GI50 (OVCAR-5): > 12.5 µM (inactive)
- GI50 (OVCAR-8): > 12.5 µM (inactive)
- GI50 (PC-3): > 12.5 µM (inactive)
- GI50 (RPMI-8226): > 12.5 µM (inactive)
- GI50 (RXF 393): > 12.5 µM (inactive)
- GI50 (RXF 631): > 100 µM (inactive)
- GI50 (SF-268): > 12.5 µM (inactive)
- GI50 (SF-295): > 12.5 µM (inactive)
- GI50 (SF-539): > 12.5 µM (inactive)
- GI50 (SK-MEL-28): 63.4 µM (inactive)
- GI50 (SK-MEL-2): > 12.5 µM (inactive)
- GI50 (SK-MEL-5): > 12.5 µM (inactive)
- GI50 (SK-OV-3): > 12.5 µM (inactive)
- GI50 (SN12C): > 12.5 µM (inactive)
- GI50 (SNB-19): > 100 µM (inactive)
- GI50 (SNB-75): > 100 µM (inactive)
- GI50 (SNB-78): > 100 µM (inactive)
- GI50 (SW-620): > 12.5 µM (inactive)
- GI50 (T47D): > 12.5 µM (inactive)
- GI50 (U-251): > 12.5 µM (inactive)
- GI50 (UACC-257): > 12.5 µM (inactive)
- GI50 (UACC-62): > 12.5 µM (inactive)
- GI50 (UO-31): > 12.5 µM (inactive)
- GI50 (XF498): > 100 µM (inactive)
